Source: patent US4396613A, “23-Ester derivatives of DMT and method of using same” (Eli Lilly and Company, priority 1981, dated 1983)
In brackets after ≈: the same amount, converted by molar mass.

Columns and labels:
[1] = test system: Staphylococcus aureus V41; test: standard agar-dilution assay (MIC); format: cell-based; conditions: Staphylococcus aureus V41, penicillin-resistant strain, unit assumed
Method: (§1) The MIC's in Table II were determined by standard agar-dilution assays. The MIC's in Table III were obtained using a conventional broth-dilution microtiter test.
^b Penicillinresistant strain

[2] = test system: Staphylococcus aureus X400; test: standard agar-dilution assay (MIC); format: cell-based; conditions: Staphylococcus aureus X400, methicillin-resistant strain, unit assumed
Method: as §1
^c Methicillinresistant-strain

[3] = test system: Haemophilus influenzae Holt; test: standard agar-dilution assay (MIC); format: cell-based; conditions: ampicillin-sensitive strain, unit assumed
Method: as §1

[4] = test system: Haemophilus influenzae R252; test: standard agar-dilution assay (MIC); format: cell-based; conditions: Haemophilus influenzae R252, ampicillin-resistant strain, unit assumed
Method: as §1

[5] = test system: Staphylococcus aureus S13E; test: standard agar-dilution assay (MIC); format: cell-based; conditions: unit assumed
Method: as §1

[6] = test system: Staphylococcus aureus X1.1; test: standard agar-dilution assay (MIC); format: cell-based; conditions: unit assumed
Method: as §1

[7] = test system: Staphylococcus epidermidis EPI1; test: standard agar-dilution assay (MIC); format: cell-based; conditions: unit assumed
Method: as §1

[8] = test system: Staphylococcus epidermidis EPI2; test: standard agar-dilution assay (MIC); format: cell-based; conditions: unit assumed
Method: as §1

Streptococcus Group 9960 = test: standard agar-dilution assay (MIC); format: cell-based; conditions: unit assumed
Method: as §1

[9] = test system: Streptococcus Group D X66; test: standard agar-dilution assay (MIC); format: cell-based; conditions: unit assumed
Method: as §1

[10] = test system: Streptococcus pyogenes C203; test: standard agar-dilution assay (MIC); format: cell-based; conditions: unit assumed
Method: as §1

Mycoplasma gallisepticum = test: conventional broth-dilution microtiter test (MIC); format: cell-based; conditions: unit assumed
Method: as §1

Mycoplasma hyorhinis = test: conventional broth-dilution microtiter test (MIC); format: cell-based; conditions: unit assumed
Method: as §1

[11] = test system: Pasteurella multocida 17E; test: conventional broth-dilution microtiter test (MIC); format: cell-based; conditions: bovine isolate, unit assumed
Method: as §1

[12] = test system: Pasteurella multocida 60A; test: conventional broth-dilution microtiter test (MIC); format: cell-based; conditions: avian isolate, unit assumed
Method: as §1

Staphylococcus aureus = test: conventional broth-dilution microtiter test (MIC); format: cell-based; conditions: unit assumed
Method: as §1

Streptococcus sp. 80 = test: conventional broth-dilution microtiter test (MIC); format: cell-based; conditions: unit assumed
Method: as §1

[13] = test system: Streptococcus pyogenes C203; test: experimental infection in mice (ED50); format: in vivo; conditions: doses given 1 and 4 hours postinfection
Method: The 23-ester derivatives of DMT of this invention have shown in vivo antimicrobial activity against experimental bacterial infections caused by gram-positive bacteria. When two doses of test compound were admininstered to mice with experimental infections, the activity observed was measured as an ED50 value [effective dose in mg/kg to protect 50% of the test animals: see Warren Wick, et al., J. Bacteriol. 81, 233-235 (1961)].
^a mg/kg × 2; doses given 1 and 4 hours postinfection

[14] = test system: Streptococcus pneumoniae Park I; format: cell-based; conditions: agar dilution, unit assumed
Method: as §1

Mycoplasma synoviae = test: conventional broth-dilution microtiter test (MIC); format: cell-based; conditions: unit assumed
Method: as §1

CCC(=O)OCC1C=C(C)C=CC(=O)C(C)CC(CC=O)C(OC2OC(C)C(OC3CC(C)(O)C(O)C(C)O3)C(N(C)C)C2O)C(C)C(O)CC(=O)OC1CC (stereo not drawn) [Compound 4, 23-O-Propionyl-DMT]
MIC [1]: 0.5 µg/mL (≈ 0.627 µM) | MIC [2]: 2 µg/mL (≈ 2.51 µM) | MIC [3]: 32 µg/mL (≈ 40.1 µM) | MIC [4]: 32 µg/mL (≈ 40.1 µM) | MIC [5]: 1 µg/mL (≈ 1.25 µM) | MIC [6]: 1 µg/mL (≈ 1.25 µM) | MIC [7]: 1 µg/mL (≈ 1.25 µM) | MIC [8]: 1 µg/mL (≈ 1.25 µM) | MIC (Streptococcus Group 9960): 1 µg/mL (≈ 1.25 µM) | MIC [9]: 1 µg/mL (≈ 1.25 µM) | MIC [10]: 0.5 µg/mL (≈ 0.627 µM) | MIC (Mycoplasma gallisepticum): 0.39 µg/mL (≈ 0.489 µM) | MIC (Mycoplasma hyorhinis): 3.12 µg/mL (≈ 3.91 µM) | MIC [11]: 6.25 µg/mL (≈ 7.83 µM) | MIC [12]: 25 µg/mL (≈ 31.3 µM) | MIC (Staphylococcus aureus): 0.78 µg/mL (≈ 0.977 µM) | MIC (Streptococcus sp. 80): 0.39 µg/mL (≈ 0.489 µM) | ED50 ([13]; C203, oral): 300 mg/kg | ED50 ([13]; C203, sc, subcutaneous): 13 mg/kg

CCC1OC(=O)CC(O)C(C)C(OC2OC(C)C(OC3CC(C)(O)C(O)C(C)O3)C(N(C)C)C2O)C(CC=O)CC(C)C(=O)C=CC(C)=CC1COC(=O)Cc1ccccc1 (stereo not drawn) [Compound 10, 23-O-Phenylacetyl-DMT]
MIC [1]: 0.5 µg/mL (≈ 0.581 µM) | MIC [2]: 0.5 µg/mL (≈ 0.581 µM) | MIC [3]: 2 µg/mL (≈ 2.33 µM) | MIC [4]: 2 µg/mL (≈ 2.33 µM) | MIC [5]: 0.25 µg/mL (≈ 0.291 µM) | MIC [6]: 0.25 µg/mL (≈ 0.291 µM) | MIC [7]: 0.5 µg/mL (≈ 0.581 µM) | MIC [8]: 0.5 µg/mL (≈ 0.581 µM) | MIC (Streptococcus Group 9960): 0.25 µg/mL (≈ 0.291 µM) | MIC [9]: 0.5 µg/mL (≈ 0.581 µM) | MIC [10]: 0.125 µg/mL (≈ 0.145 µM) | MIC [14]: 0.03 µg/mL (≈ 0.0349 µM) | MIC (Mycoplasma gallisepticum): ≤ 0.048 µg/mL | MIC (Mycoplasma hyorhinis): 1.56 µg/mL (≈ 1.81 µM) | MIC (Mycoplasma synoviae): ≤ 0.048 µg/mL | MIC [11]: 1.56 µg/mL (≈ 1.81 µM) | MIC [12]: 3.12 µg/mL (≈ 3.63 µM) | MIC (Staphylococcus aureus): 0.78 µg/mL (≈ 0.907 µM) | MIC (Streptococcus sp. 80): 0.097 µg/mL (≈ 0.113 µM)

CCC1OC(=O)CC(O)C(C)C(OC2OC(C)C(OC3CC(C)(O)C(O)C(C)O3)C(N(C)C)C2OC(C)=O)C(CC=O)CC(C)C(=O)C=CC(C)=CC1COC(=O)C=Cc1ccccc1 (stereo not drawn) [Compound 11]
MIC [1]: 0.5 µg/mL (≈ 0.547 µM) | MIC [2]: 2 µg/mL (≈ 2.19 µM) | MIC [3]: 128 µg/mL (≈ 140 µM) | MIC [4]: 128 µg/mL (≈ 140 µM) | MIC [5]: 1 µg/mL (≈ 1.09 µM) | MIC [6]: 1 µg/mL (≈ 1.09 µM) | MIC [7]: 1 µg/mL (≈ 1.09 µM) | MIC [8]: 4 µg/mL (≈ 4.38 µM) | MIC (Streptococcus Group 9960): 2 µg/mL (≈ 2.19 µM) | MIC [9]: 2 µg/mL (≈ 2.19 µM) | MIC [10]: 1 µg/mL (≈ 1.09 µM) | MIC [14]: 0.25 µg/mL (≈ 0.273 µM) | MIC (Mycoplasma gallisepticum): 0.39 µg/mL (≈ 0.427 µM) | MIC (Mycoplasma hyorhinis): 6.25 µg/mL (≈ 6.84 µM) | MIC (Mycoplasma synoviae): 3.12 µg/mL (≈ 3.41 µM) | MIC [11]: 12.5 µg/mL (≈ 13.7 µM) | MIC [12]: > 50 µg/mL | MIC (Staphylococcus aureus): 1.56 µg/mL (≈ 1.71 µM) | MIC (Streptococcus sp. 80): 0.78 µg/mL (≈ 0.853 µM)

CCC1OC(=O)CC(O)C(C)C(OC2OC(C)C(OC3CC(C)(O)C(O)C(C)O3)C(N(C)C)C2OC(=O)Cc2ccccc2)C(CC=O)CC(C)C(=O)C=CC(C)=CC1COC(=O)Cc1ccccc1 (stereo not drawn) [Compound 17]
MIC [1]: 1 µg/mL (≈ 1.02 µM) | MIC [2]: 2 µg/mL (≈ 2.04 µM) | MIC [3]: > 128 µg/mL | MIC [4]: > 128 µg/mL | MIC [5]: 1 µg/mL (≈ 1.02 µM) | MIC [6]: 1 µg/mL (≈ 1.02 µM) | MIC [7]: 1 µg/mL (≈ 1.02 µM) | MIC [8]: 1 µg/mL (≈ 1.02 µM) | MIC (Streptococcus Group 9960): 1 µg/mL (≈ 1.02 µM) | MIC [9]: 1 µg/mL (≈ 1.02 µM) | MIC [10]: 0.5 µg/mL (≈ 0.511 µM) | MIC [14]: 0.125 µg/mL (≈ 0.128 µM) | MIC (Mycoplasma gallisepticum): 0.78 µg/mL (≈ 0.797 µM) | MIC (Mycoplasma hyorhinis): 6.25 µg/mL (≈ 6.39 µM) | MIC (Mycoplasma synoviae): 1.56 µg/mL (≈ 1.59 µM) | MIC [11]: 6.25 µg/mL (≈ 6.39 µM) | MIC [12]: 25 µg/mL (≈ 25.6 µM) | MIC (Staphylococcus aureus): 0.78 µg/mL (≈ 0.797 µM) | MIC (Streptococcus sp. 80): 0.78 µg/mL (≈ 0.797 µM)

CCC1OC(=O)CC(O)C(C)C(OC2OC(C)C(OC3CC(C)(O)C(O)C(C)O3)C(N(C)C)C2OC(C)=O)C(CC=O)CC(C)C(=O)C=CC(C)=CC1COC(=O)CCCCc1ccccc1 (stereo not drawn) [Compound 18]
MIC [1]: 2 µg/mL (≈ 2.12 µM) | MIC [2]: 2 µg/mL (≈ 2.12 µM) | MIC [3]: > 128 µg/mL | MIC [4]: > 128 µg/mL | MIC [5]: 1 µg/mL (≈ 1.06 µM) | MIC [6]: 1 µg/mL (≈ 1.06 µM) | MIC [7]: 1 µg/mL (≈ 1.06 µM) | MIC [8]: 2 µg/mL (≈ 2.12 µM) | MIC (Streptococcus Group 9960): 1 µg/mL (≈ 1.06 µM) | MIC [9]: 2 µg/mL (≈ 2.12 µM) | MIC [10]: 0.5 µg/mL (≈ 0.53 µM) | MIC [14]: 0.125 µg/mL (≈ 0.132 µM) | MIC (Mycoplasma gallisepticum): < 0.05 µg/mL | MIC (Mycoplasma hyorhinis): 12.5 µg/mL (≈ 13.2 µM) | MIC (Mycoplasma synoviae): 6.25 µg/mL (≈ 6.62 µM) | MIC [11]: 50 µg/mL (≈ 53 µM) | MIC [12]: > 50 µg/mL | MIC (Staphylococcus aureus): 1.56 µg/mL (≈ 1.65 µM) | MIC (Streptococcus sp. 80): 0.78 µg/mL (≈ 0.826 µM)

CCC1OC(=O)CC(O)C(C)C(OC2OC(C)C(OC3CC(C)(O)C(O)C(C)O3)C(N(C)C)C2OC(C)=O)C(CC=O)CC(C)C(=O)C=CC(C)=CC1COC(=O)Cc1cc(OC)ccc1OC (stereo not drawn) [Compound 20]
MIC [1]: 0.5 µg/mL (≈ 0.52 µM) | MIC [2]: 0.5 µg/mL (≈ 0.52 µM) | MIC [3]: 32 µg/mL (≈ 33.3 µM) | MIC [4]: 16 µg/mL (≈ 16.6 µM) | MIC [5]: 0.5 µg/mL (≈ 0.52 µM) | MIC [6]: 0.5 µg/mL (≈ 0.52 µM) | MIC [7]: 0.5 µg/mL (≈ 0.52 µM) | MIC [8]: 0.5 µg/mL (≈ 0.52 µM) | MIC (Streptococcus Group 9960): 2 µg/mL (≈ 2.08 µM) | MIC [9]: 0.5 µg/mL (≈ 0.52 µM) | MIC [10]: 0.25 µg/mL (≈ 0.26 µM) | MIC [14]: 0.06 µg/mL (≈ 0.0624 µM) | MIC (Mycoplasma gallisepticum): 0.195 µg/mL (≈ 0.203 µM) | MIC (Mycoplasma hyorhinis): 1.56 µg/mL (≈ 1.62 µM) | MIC (Mycoplasma synoviae): 0.39 µg/mL (≈ 0.405 µM) | MIC [11]: 12.5 µg/mL (≈ 13 µM) | MIC [12]: 25 µg/mL (≈ 26 µM) | MIC (Staphylococcus aureus): 0.78 µg/mL (≈ 0.811 µM) | MIC (Streptococcus sp. 80): 0.195 µg/mL (≈ 0.203 µM)
